From patent US9902740B2, “Macrocyclic benzodiazepine dimers, conjugates thereof, preparation and uses” (BRISTOL-MYERS SQUIBB COMPANY, priority 2015, dated 2018)

Experiments:
Type in all cases: cell-based
[1] = system: HCT116 human colon cancer cell line; assay: Cytotoxic activity of dimers against HCT116 cells; conditions: Table 4
Description: (§1) H226 is a human lung cancer cell line. N87 is a human gastric cancer cell line. OVCAR3 is a human ovarian cancer cell line. HCT116 is a human colon cancer cell line. HCT116/VM46 is a human colon cancer cell line that is multi-drug and paclitaxel resistant.

[2] = system: H226 human lung cancer cell line; assay: Cytotoxic activity of dimers against H226 cells; conditions: Table 4; H226 human lung cancer cell line; read-out: Cell Line (IC50, nM) H226
Description: as §1

[3] = system: HCT116/VM46 human colon cancer cell line (multi-drug and paclitaxel resistant); assay: Cytotoxic activity of dimers against HCT116/VM46 cells; conditions: Table 4
Description: as §1

[4] = system: N87 human gastric cancer cell line; assay: Cytotoxic activity of dimers against N87 cells; conditions: Table 4; N87 human gastric cancer cell line; read-out: Cell Line (IC50, nM) N87
Description: as §1

[5] = system: OVCAR3 human ovarian cancer cell line; assay: Cytotoxic activity of dimers against OVCAR3 cells; conditions: Table 4; OVCAR3 human ovarian cancer cell line; read-out: Cell Line (IC50, nM) OVCAR3
Description: as §1

`COCCOc1ccc(C2=CN3C(=O)c4cc5c(cc4N=C[C@@H]3C2)OCCCOc2cc3c(cc2OCCCCCCCCCCCCO5)C(=O)N2C=C(c4ccc(OCCOC)cc4)C[C@H]2C=N3)cc1` [IIc-3] was tested, and the IC50 [1] was 13 nM, the IC50 [2] was 32 nM and the IC50 [3] was 58 nM. The IC50 [4] was 29 nM and the IC50 [5] was 104 nM.
Compound `C=C1C[C@H]2C=Nc3cc4c(cc3C(=O)N2C1)OCCCCNCCCCOc1cc2c(cc1OCCCO4)N=C[C@@H]1CC(=C)CN1C2=O` [IIa-14] has an IC50 [1] of 38 nM, an IC50 [2] of 21 nM and an IC50 [3] of 170 nM. For the same compound, the IC50 [4] was 23 nM and the IC50 [5] was 50 nM.
